According to patent publication US4950466A, “Reduction of the severity of 3'-azido-3'-deoxythymidine-induced anemia using a combination of benzylacyclouridine and dipyridamole” (priority 1988, dated 1990):
One block for each molecule: values may come before it.

Tests used:
[1] = test system: human bone marrow progenitor (HBMP) cells; conditions: in vitro; cited from earlier work
[2] = human, in vivo; cited from earlier work
[3] = Blood counts (hemoglobin, hematocrit, white blood cells) in mice receiving AZT, BAU and/or DPR; pooled blood, Coulter Counter; type: in vivo, Female Balb/c mice; design: Hb (hemoglobin) / Hct (hematocrit): unit not given here
Protocol: For oral administration, BAU was dissolved in water to achieve a final concentration of 0.3 mg/mL. For intraperitoneal administration, BAU was dissolved in dimethylsulfoxide (DMSO) to achieve final concentrations of 60, 100, or 120 mg/mL.
The solution was centrifuged at 15,000 rpm for 20 minutes.
(§1) Female Balb/c mice, 6-12 weeks old, were purchased from the Animal Care Facility of the Roger Williams Cancer Center. The animals were randomly divided into eight groups. Six of the treatment protocols were performed in duplicate. Each group contained either eight or nine animals. The animals were weighed once weekly. Food and water was available ad libitum. Blood samples were obtained from the tail vein. The first blood sample was obtained on Day 0 and subsequent samples were obtained on Days 19, 27, 34 and 44, 48, 54 and 68 after the initiation of drug treatment. With each sampling, approximately 100 ul of blood was removed from each animal. The blood obtained from the animals in each group was pooled and analyzed by Coulter Counter. On each sample, hemoglobin, hematocrit, and white blood cell count were determined. The mean red cell volume was calculated. The Treatment Groups were as follows:
DMSO was given ip, 0.O1 mL/5 grams body weight, once weekly.
Group 4--BAU 240 mg/kg, ip, once weekly.
This corresponds to a daily administered dose of 43 mg/kg.
The concentration was 0.69 mg/ml which corresponds to an administered dose of 100 mg/kg/day.

[4] = Oral bioavailability of BAU; conditions: in vivo, 43 mg/kg, drinking water, read-out: bioavailability of BAU administered orally
Protocol: Group 7--AZT administered in the drinking water (1 mg/mL) and BAU administered in the same container of drinking water (0.3 mg/mL). This corresponds to a daily administered dose of 43 mg/kg. The bioavailability of BAU administered orally was 80%. Therefore, the bioavailable dose of BAU administered to this group was 240 mg/kg/week.

uridine phosphorylase = conditions: cited from earlier work
[5] = Weekly body weight of treated mice; type: in vivo, Female Balb/c mice; conditions: measured each week
Protocol: as §1
Body weights of the animals in the treatment groups were measured each week.

[6] = test system: granulocyte macrophage colony forming cells; conditions: in vitro; cited from earlier work
[7] = test system: erythroid burst-forming cells; conditions: in vitro; cited from earlier work
[8] = test system: human immunodifficiency virus reverse transcriptase; conditions: cited from earlier work
[9] = Day 0, BAU 240 mg/kg ip once weekly, without (Group 4) or with (Group 5) AZT 1 mg/mL in drinking water
[10] = Day 19, BAU 240 mg/kg ip once weekly, without (Group 4) or with (Group 5) AZT 1 mg/mL in drinking water
[11] = Day 27, BAU 240 mg/kg ip once weekly, without (Group 4) or with (Group 5) AZT 1 mg/mL in drinking water
[12] = Day 34, BAU 240 mg/kg ip once weekly, without (Group 4) or with (Group 5) AZT 1 mg/mL in drinking water
[13] = Day 48, BAU 240 mg/kg ip once weekly, without (Group 4) or with (Group 5) AZT 1 mg/mL in drinking water
[14] = Day 0, AZT 1 mg/mL and/or DPR 0.69 mg/mL in drinking water, no BAU (Groups 3, 8, 9)
[15] = Day 0, AZT 1 mg/mL in drinking water (145 mg/kg/day) + DMSO ip once weekly (Group 2)
[16] = Day 19, AZT 1 mg/mL and/or DPR 0.69 mg/mL in drinking water, no BAU (Groups 3, 8, 9)
[17] = Day 19, AZT 1 mg/mL in drinking water (145 mg/kg/day) + DMSO ip once weekly (Group 2)
[18] = Day 27, AZT 1 mg/mL and/or DPR 0.69 mg/mL in drinking water, no BAU (Groups 3, 8, 9)
[19] = Day 27, AZT 1 mg/mL in drinking water (145 mg/kg/day) + DMSO ip once weekly (Group 2)
[20] = Day 34, AZT 1 mg/mL and/or DPR 0.69 mg/mL in drinking water, no BAU (Groups 3, 8, 9)
[21] = Day 34, AZT 1 mg/mL in drinking water (145 mg/kg/day) + DMSO ip once weekly (Group 2)
[22] = Day 48, AZT 1 mg/mL in drinking water (145 mg/kg/day) + DMSO ip once weekly (Group 2)
[23] = Day 48, AZT 1 mg/mL in drinking water (Group 3)
[24] = Day 44, DPR 0.69 mg/mL with or without AZT 1 mg/mL in drinking water (Groups 8, 9)
[25] = Day 54, DPR 0.69 mg/mL with or without AZT 1 mg/mL in drinking water (Groups 8, 9)
[26] = Day 68, DPR 0.69 mg/mL with or without AZT 1 mg/mL in drinking water (Groups 8, 9)

Structure (SMILES): O=c1ccn([C@@H]2O[C@H](CO)[C@@H](O)[C@H]2O)c(=O)[nH]1 [uridine]
reversal of toxic effect of AZT in HBMP cells [1]: could reverse the toxic effect of AZT in HBMP cells
body temperature [2]: rapid and potentially dangerous rises in body temperature
elimination from the plasma [2]: rapidly eliminated from the plasma

bioavailability [4]: 80%
Structure (SMILES): O=c1[nH]c(=O)n(COCCO)cc1Cc1ccccc1 [BAU, 5-benzylacyclouridine]
Hb (hemoglobin) [3, 9]: 18.3
Hct (hematocrit) [3, 9]: 52.0
WBC (white blood cell count) [3, 9]: 8.8
Hb (hemoglobin) [3, 10]: 17.3
Hct (hematocrit) [3, 10]: 50.0
WBC (white blood cell count) [3, 10]: 10.8
Hb (hemoglobin) [3, 11]: 16.2
Hct (hematocrit) [3, 11]: 51
WBC (white blood cell count) [3, 11]: 6.6
Hb (hemoglobin) [3, 12]: 17.2
Hct (hematocrit) [3, 12]: 50
WBC (white blood cell count) [3, 12]: 7.9
Hb (hemoglobin) [3, 13]: 16.6
Hct (hematocrit) [3, 13]: 49
WBC (white blood cell count) [3, 13]: 6.4
inhibition of cleavage of 5-fluoro-2'-deoxyuridine (uridine phosphorylase): inhibits the cleavage of the antineoplastic 5-fluoro-2'-deoxyuridine
inhibition of uridine phosphorylase (uridine phosphorylase; cleavage of uridine to uracil): inhibitor of the enzyme uridine phosphorylase

Structure (SMILES): Cc1cn([C@H]2C[C@H](N=[N+]=[N-])[C@@H](CO)O2)c(=O)[nH]c1=O [AZT, 3'-Azido-3'-deoxythymidine]
Hb (hemoglobin) [3, 14]: 17.3
Hct (hematocrit) [3, 14]: 43.0
WBC (white blood cell count) [3, 14]: 8.4
Hb (hemoglobin) [3, 15]: 17.3
Hct (hematocrit) [3, 15]: 49.0
WBC (white blood cell count) [3, 15]: 10.1
Hb (hemoglobin) [3, 16]: 13.7
Hct (hematocrit) [3, 16]: 43.0
Hb (hemoglobin) [3, 17]: 12.8
Hct (hematocrit) [3, 17]: 36.0
WBC (white blood cell count) [3, 17]: 21.2
Hb (hemoglobin) [3, 18]: 13.6
Hct (hematocrit) [3, 18]: 43
WBC (white blood cell count) [3, 18]: 13.6
Hb (hemoglobin) [3, 19]: 13
Hct (hematocrit) [3, 19]: 40
WBC (white blood cell count) [3, 19]: 11.6
Hb (hemoglobin) [3, 20]: 13.9
Hct (hematocrit) [3, 20]: 42
WBC (white blood cell count) [3, 20]: 13.3
Hb (hemoglobin) [3, 21]: 11.6
Hct (hematocrit) [3, 21]: 35
WBC (white blood cell count) [3, 21]: 11.5
Hb (hemoglobin) [3, 22]: 11.0
Hct (hematocrit) [3, 22]: 33
WBC (white blood cell count) [3, 22]: 5.0
Hb (hemoglobin) [3, 23]: 13.2
Hct (hematocrit) [3, 23]: 34
WBC (white blood cell count) [3, 23]: 5.6
nature of anemia produced in mice ([3]; mice): typical of AZT induced anemia in humans
body weight over time [5]: tended to lose weight as their anemia increased over time
inhibition of granulocyte macrophage colony forming cells [6]: consistently inhibit granulocyte macrophage colony forming cells and erythroid burst-forming cells in dose-dependent fashion
inhibition of erythroid burst-forming cells [7]: consistently inhibit granulocyte macrophage colony forming cells and erythroid burst-forming cells in dose-dependent fashion
inhibition of HIV reverse transcriptase [8]: inhibits the human immunodifficiency virus reverse transcriptase

Structure (SMILES): Nc1ccn([C@@H]2O[C@H](CO)[C@@H](O)[C@H]2O)c(=O)n1 [cytidine]
reversal of toxic effect of AZT in HBMP cells [1]: could reverse the toxic effect of AZT in HBMP cells

Structure (SMILES): OCCN(CCO)c1nc(N2CCCCC2)c2nc(N(CCO)CCO)nc(N3CCCCC3)c2n1 [DPR, 2,2',2"2'"-(4,8-dipiperidinopyimidol[5,4-d]pyrimidene-2,6-diyldinitrilo) tetraethanol]
Hb (hemoglobin) [3, 14]: 16.5
Hct (hematocrit) [3, 14]: 48.0
WBC (white blood cell count) [3, 14]: 5.9
Hb (hemoglobin) [3, 16]: 14.3
Hct (hematocrit) [3, 16]: 49
WBC (white blood cell count) [3, 16]: 11.1
Hb (hemoglobin) [3, 18]: 15.5
Hct (hematocrit) [3, 18]: 45
WBC (white blood cell count) [3, 18]: 10
Hb (hemoglobin) [3, 20]: 14.8
Hct (hematocrit) [3, 20]: 45
WBC (white blood cell count) [3, 20]: 9.4
Hb (hemoglobin) [3, 24]: 14.6
Hct (hematocrit) [3, 24]: 45
WBC (white blood cell count) [3, 24]: 9.1
Hb (hemoglobin) [3, 25]: 15.4
Hct (hematocrit) [3, 25]: 46
WBC (white blood cell count) [3, 25]: 7.6
Hb (hemoglobin) [3, 26]: 15.7
Hct (hematocrit) [3, 26]: 45
WBC (white blood cell count) [3, 26]: 9.3
